From ChEMBL document CHEMBL4052714, “Synthesis and antibacterial activity of novel 4″-O-(1-aralkyl-1,2,3-triazol-4-methyl-carbamoyl) azithromycin analogs” (2017)
Values after ≈ are worked out from the molar mass of the structure shown.

What was measured:
Format in all cases: functional
Staphylococcus aureus [1] = experiment: Antibacterial activity against methicillin-susceptible Staphylococcus aureus ATCC 29213
Streptococcus pneumoniae [2] = experiment: Antibacterial activity against erythromycin-resistant Streptococcus pneumoniae A22072 expressing mefA gene
Staphylococcus aureus [3] = experiment: Antibacterial activity against erythromycin-susceptible Staphylococcus aureus ATCC 25923
Pseudomonas aeruginosa = experiment: Antibacterial activity against Pseudomonas aeruginosa ATCC 27853
Streptococcus pneumoniae [4] = experiment: Potency index, ratio of clarithromycin MIC to compound MIC for erythromycin-resistant Streptococcus pneumoniae B1 expressing ermB gene
Streptococcus pneumoniae [5] = experiment: Potency index, ratio of clarithromycin MIC to compound MIC for erythromycin-resistant Streptococcus pneumoniae A22072 expressing mefA gene
Streptococcus pneumoniae [6] = experiment: Antibacterial activity against erythromycin-resistant Streptococcus pneumoniae B1 expressing ermB gene
Escherichia coli = experiment: Antibacterial activity against Escherichia coli ATCC 25922
Streptococcus pneumoniae [7] = experiment: Potency index, ratio of clarithromycin MIC to compound MIC for erythromycin-resistant Streptococcus pneumoniae AB11 expressing ermB/mefA gene
Streptococcus pyogenes [8] = experiment: Antibacterial activity against erythromycin-susceptible Streptococcus pyogenes isolate S2
Streptococcus pneumoniae [9] = experiment: Antibacterial activity against erythromycin-susceptible Streptococcus pneumoniae ATCC 49619
Streptococcus pneumoniae [10] = experiment: Potency index, ratio of azithromycin MIC to compound MIC for erythromycin-resistant Streptococcus pneumoniae AB11 expressing ermB/mefA gene
Streptococcus pneumoniae [11] = experiment: Antibacterial activity against erythromycin-resistant Streptococcus pneumoniae AB11 expressing ermB/mefA gene
Streptococcus pyogenes [12] = experiment: Antibacterial activity against erythromycin-resistant Streptococcus pyogenes isolate R2
Streptococcus pneumoniae [13] = experiment: Potency index, ratio of azithromycin MIC to compound MIC for erythromycin-resistant Streptococcus pneumoniae A22072 expressing mefA gene
Streptococcus pneumoniae [14] = experiment: Potency index, ratio of azithromycin MIC to compound MIC for erythromycin-resistant Streptococcus pneumoniae B1 expressing ermB gene
Streptococcus pyogenes [15] = experiment: Potency index, ratio of azithromycin MIC to compound MIC for erythromycin-susceptible Streptococcus pyogenes isolate S2
Streptococcus pyogenes [16] = experiment: Potency index, ratio of azithromycin MIC to compound MIC for erythromycin-resistant Streptococcus pyogenes isolate R2
Staphylococcus aureus [17] = experiment: Potency index, ratio of azithromycin MIC to compound MIC for erythromycin-susceptible Staphylococcus aureus ATCC 25923
Streptococcus pyogenes [18] = experiment: Potency index, ratio of clarithromycin MIC to compound MIC for erythromycin-resistant Streptococcus pyogenes isolate R2

SMILES	MIC (Staphylococcus aureus [1])	MIC (Streptococcus pneumoniae [2])	MIC (Staphylococcus aureus [3])	MIC (Pseudomonas aeruginosa)	Ratio (Streptococcus pneumoniae [4])	Ratio (Streptococcus pneumoniae [5])	MIC (Streptococcus pneumoniae [6])	MIC (Escherichia coli)	Ratio (Streptococcus pneumoniae [7])	MIC (Streptococcus pyogenes [8])	MIC (Streptococcus pneumoniae [9])	Ratio (Streptococcus pneumoniae [10])	MIC (Streptococcus pneumoniae [11])	MIC (Streptococcus pyogenes [12])	Ratio (Streptococcus pneumoniae [13])	Ratio (Streptococcus pneumoniae [14])	Ratio (Streptococcus pyogenes [15])	Ratio (Streptococcus pyogenes [16])	Ratio (Staphylococcus aureus [17])	Ratio (Streptococcus pyogenes [18])
CC[C@H]1OC(=O)[C@H](C)[C@@H](O[C@H]2C[C@@](C)(OC)[C@@H](OC(=O)NCc3cn(Cc4ccc(Cl)cc4Cl)nn3)[C@H](C)O2)[C@H](C)[C@@H](O[C@@H]2O[C@H](C)C[C@H](N(C)C)[C@H]2O)[C@](C)(O)C[C@@H](C)CN(C)[C@H](C)[C@@H](OC(=O)NCc2ccc(OC)cc2)[C@]1(C)O	16 µg/mL (≈ 13.4 µM)	0.125 µg/mL (≈ 0.105 µM)	0.25 µg/mL (≈ 0.209 µM)	16 µg/mL (≈ 13.4 µM)	1024 - 2133	32 - 133	0.125 µg/mL (≈ 0.105 µM)	16 µg/mL (≈ 13.4 µM)	1024 - 2048	< 0.002 µg/mL	0.06 µg/mL (≈ 0.0502 µM)	1024 - 2048	0.25 µg/mL (≈ 0.209 µM)	8 µg/mL (≈ 6.69 µM)	32 - 133	1024 - 2133				
CC[C@H]1OC(=O)[C@H](C)[C@@H](O[C@H]2C[C@@](C)(OC)[C@@H](OC(=O)NCc3cn(Cc4c(Cl)cccc4Cl)nn3)[C@H](C)O2)[C@H](C)[C@@H](O[C@@H]2O[C@H](C)C[C@H](N(C)C)[C@H]2O)[C@](C)(O)C[C@@H](C)CN(C)[C@H](C)[C@H]2OC(=O)O[C@@]21C	32 µg/mL (≈ 30.2 µM)	0.25 µg/mL (≈ 0.236 µM)	4 µg/mL (≈ 3.78 µM)	64 µg/mL (≈ 60.5 µM)			1 µg/mL (≈ 0.945 µM)	128 µg/mL (≈ 121 µM)		0.125 µg/mL (≈ 0.118 µM)	1 µg/mL (≈ 0.945 µM)	1024	0.25 µg/mL (≈ 0.236 µM)	16 µg/mL (≈ 15.1 µM)	16	128				
CC[C@H]1OC(=O)[C@H](C)[C@@H](O[C@H]2C[C@@](C)(OC)[C@@H](OC(=O)NCc3cn(Cc4ccc(Cl)cc4Cl)nn3)[C@H](C)O2)[C@H](C)[C@@H](O[C@@H]2O[C@H](C)C[C@H](N(C)C)[C@H]2O)[C@](C)(O)C[C@@H](C)CN(C)[C@H](C)[C@@H](O)[C@]1(C)O	16 µg/mL (≈ 15.5 µM)	0.25 µg/mL (≈ 0.242 µM)	1 µg/mL (≈ 0.969 µM)	32 µg/mL (≈ 31 µM)			0.5 µg/mL (≈ 0.484 µM)	64 µg/mL (≈ 62 µM)		0.016 µg/mL (≈ 0.0155 µM)	0.25 µg/mL (≈ 0.242 µM)	1024	0.25 µg/mL (≈ 0.242 µM)	64 µg/mL (≈ 62 µM)	16	256	12.5			
CC[C@H]1OC(=O)[C@H](C)[C@@H](O[C@H]2C[C@@](C)(OC)[C@@H](OC(=O)NCc3cn(Cc4ccc(C)cc4)nn3)[C@H](C)O2)[C@H](C)[C@@H](O[C@@H]2O[C@H](C)C[C@H](N(C)C)[C@H]2O)[C@](C)(O)C[C@@H](C)CN(C)[C@H](C)[C@@H](OC(=O)NCc2ccc(OC)cc2)[C@]1(C)O	32 µg/mL (≈ 28.1 µM)	0.03 µg/mL (≈ 0.0263 µM)	0.06 µg/mL (≈ 0.0526 µM)	64 µg/mL (≈ 56.1 µM)	1024 - 2133	32 - 133	0.125 µg/mL (≈ 0.11 µM)	16 µg/mL (≈ 14 µM)	1024 - 2048	< 0.002 µg/mL	0.125 µg/mL (≈ 0.11 µM)	1024 - 2048	0.25 µg/mL (≈ 0.219 µM)	8 µg/mL (≈ 7.01 µM)	32 - 133	1024 - 2133				
CC[C@H]1OC(=O)[C@H](C)[C@@H](O[C@H]2C[C@@](C)(OC)[C@@H](OC(=O)NCc3cn(Cc4c(Cl)cccc4Cl)nn3)[C@H](C)O2)[C@H](C)[C@@H](O[C@@H]2O[C@H](C)C[C@H](N(C)C)[C@H]2O)[C@](C)(O)C[C@@H](C)CN(C)[C@H](C)[C@@H](OC(=O)NCc2ccc(OC)cc2)[C@]1(C)O	16 µg/mL (≈ 13.4 µM)	0.03 µg/mL (≈ 0.0251 µM)	0.25 µg/mL (≈ 0.209 µM)	16 µg/mL (≈ 13.4 µM)	1024 - 2133	32 - 133	0.125 µg/mL (≈ 0.105 µM)	16 µg/mL (≈ 13.4 µM)	1024 - 2048	< 0.002 µg/mL	0.06 µg/mL (≈ 0.0502 µM)	1024 - 2048	0.25 µg/mL (≈ 0.209 µM)	1 µg/mL (≈ 0.837 µM)	32 - 133	1024 - 2133				
CC[C@H]1OC(=O)[C@H](C)[C@@H](O[C@H]2C[C@@](C)(OC)[C@@H](OC(=O)NCc3cn(Cc4ccccc4Cl)nn3)[C@H](C)O2)[C@H](C)[C@@H](O[C@@H]2O[C@H](C)C[C@H](N(C)C)[C@H]2O)[C@](C)(O)C[C@@H](C)CN(C)[C@H](C)[C@@H](OC(=O)NCc2ccc(OC)cc2)[C@]1(C)O	16 µg/mL (≈ 13.8 µM)	0.03 µg/mL (≈ 0.0258 µM)	0.03 µg/mL (≈ 0.0258 µM)	8 µg/mL (≈ 6.89 µM)	1024 - 2133	32 - 133	0.06 µg/mL (≈ 0.0517 µM)	32 µg/mL (≈ 27.6 µM)	1024 - 2048	< 0.002 µg/mL	0.125 µg/mL (≈ 0.108 µM)	1024 - 2048	0.125 µg/mL (≈ 0.108 µM)	8 µg/mL (≈ 6.89 µM)	32 - 133	1024 - 2133				
CC[C@H]1OC(=O)[C@H](C)[C@@H](O[C@H]2C[C@@](C)(OC)[C@@H](OC(=O)NCc3cn(Cc4ccc(Cl)cc4)nn3)[C@H](C)O2)[C@H](C)[C@@H](O[C@@H]2O[C@H](C)C[C@H](N(C)C)[C@H]2O)[C@](C)(O)C[C@@H](C)CN(C)[C@H](C)[C@@H](OC(=O)NCc2ccc(OC)cc2)[C@]1(C)O	16 µg/mL (≈ 13.8 µM)	0.06 µg/mL (≈ 0.0517 µM)	0.008 µg/mL (≈ 0.00689 µM)	8 µg/mL (≈ 6.89 µM)	1024 - 2133	32 - 133	0.125 µg/mL (≈ 0.108 µM)	16 µg/mL (≈ 13.8 µM)	1024 - 2048	< 0.002 µg/mL	0.125 µg/mL (≈ 0.108 µM)	1024 - 2048	0.125 µg/mL (≈ 0.108 µM)	1 µg/mL (≈ 0.861 µM)	32 - 133	1024 - 2133		128	31	128
CC[C@H]1OC(=O)[C@H](C)[C@@H](O[C@H]2C[C@@](C)(OC)[C@@H](OC(=O)NCc3cn(Cc4ccc(C)cc4)nn3)[C@H](C)O2)[C@H](C)[C@@H](O[C@@H]2O[C@H](C)C[C@H](N(C)C)[C@H]2O)[C@](C)(O)C[C@@H](C)CN(C)[C@H](C)[C@H]2OC(=O)O[C@@]21C	64 µg/mL (≈ 63.8 µM)	1 µg/mL (≈ 0.997 µM)	4 µg/mL (≈ 3.99 µM)	64 µg/mL (≈ 63.8 µM)			2 µg/mL (≈ 1.99 µM)	128 µg/mL (≈ 128 µM)		0.25 µg/mL (≈ 0.249 µM)	1 µg/mL (≈ 0.997 µM)		1 µg/mL (≈ 0.997 µM)	64 µg/mL (≈ 63.8 µM)						
